The numbers were not newly measured in US20210000953A1, “USE OF IMMUNE CHECKPOINT INHIBITORS IN CENTRAL NERVOUS SYSTEMS NEOPLASMS” (Bristol-Myers Squibb Company, priority 2014, published 2021), which cites them from elsewhere.

The subject of one series is recurrent GBM. The settings on record: single agent, relapsed setting; cited from earlier work.
The conditions of series [1]: in vivo; cited from earlier work.
Another series has as its system previously treated GBM. The settings on record: AVF3708g, cited from earlier work.
For series [2], the system named is previously treated gliomas. The settings on record: NCI 06-C-0064E, cited from earlier work.
Another series concerns newly diagnosed GBM. The settings on record: cited from earlier work.

On to `CCc1c2c(nc3ccc(OC(=O)N4CCC(N5CCCCC5)CC4)cc13)-c1cc3c(c(=O)n1C2)COC(=O)[C@]3(O)CC` [irinotecan], for which the Response rates in the series with recurrent GBM is ≤ 15%.

Consider `Cn1nnc2c(C(N)=O)ncn2c1=O` [temozolomide], for which the Terminal half-life in series [1] was 1.2 h.

As to bevacizumab, in the series with previously treated GBM (WHO radiographic criteria, 95% CI:17.0%, 36.1%), the “Responses, % of patients” value is 25.9%. Also, the “Median duration of response” value is given as 4.2 months in the series with previously treated GBM (95% CI: 3.0, 5.7 months) and 3.9 months in series [2] (95% CI: 2.4, 17.4). Further, the Objective responses in series [2] (56 patients with high-grade glioma, 95% CI, 10.9%, 31.3%) is listed as 19.6%. Further, the “Cognitive function and quality of life” value in the series with newly diagnosed GBM (in vivo) is “reduced cognitive function and quality of life”. Moreover, the Overall survival result with newly diagnosed GBM (newly diagnosed GBM, above standard of care (radiotherapy plus temozolomide)) is recorded as “does not significantly increase overall survival”. Also, in the series with newly diagnosed GBM (newly diagnosed GBM, with radiotherapy plus temozolomide), the Progression-free survival entry is on record as “increases progression-free survival”.
